{
  "source": "patent US9035054B2",
  "about": "“Dinitroxide-type biradical compounds optimized for dynamic nuclear polarization (DNP)” (Universite D'Aix-Marseille, priority 2009, dated 2015)",
  "experiment": "Solubility in water",
  "conditions": "compared with TOTAPOL",
  "data": [
    {"substance": "bis-TEMPO-bis-Ketal [bTbK]", "values": [
      {"measurement": "solubility in water", "value": "less good solubility in water"}
    ]}
  ]
}
